Results published in ChEMBL document CHEMBL1142415, “5-tert-butyl-N-pyrazol-4-yl-4,5,6,7-tetrahydrobenzo[d]isoxazole-3-carboxamide derivatives as novel potent inhibitors of Mycobacterium tuberculosis pantothenate synthetase: initiating a quest for new antitubercular drugs” (J Med Chem, 2008).

Assays:
[1] = target: T1, Pantothenate synthetase (Mycobacterium tuberculosis) (UniProt P9WIL5); assay: Inhibition of Mycobacterium tuberculosis pantothenate synthetase at 100 uM
T1 sequence (whole entry): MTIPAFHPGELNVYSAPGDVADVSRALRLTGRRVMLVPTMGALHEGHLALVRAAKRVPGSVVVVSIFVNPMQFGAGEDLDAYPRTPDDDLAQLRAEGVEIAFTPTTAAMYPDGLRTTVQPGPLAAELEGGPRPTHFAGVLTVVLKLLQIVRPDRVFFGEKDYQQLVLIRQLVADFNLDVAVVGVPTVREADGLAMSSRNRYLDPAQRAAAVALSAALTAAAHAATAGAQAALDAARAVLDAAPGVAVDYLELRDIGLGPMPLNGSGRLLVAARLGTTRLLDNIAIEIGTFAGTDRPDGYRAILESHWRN

[2] = test system: Mycobacterium tuberculosis; assay: Antibacterial activity against Mycobacterium tuberculosis at 128 uM by LORA assay; assay type: functional
[3] = target: T2, Pantothenate synthetase (Mycobacterium tuberculosis, UniProt P9WIL5); assay: Inhibition of Mycobacterium tuberculosis pantothenate synthetase
T2 sequence (P9WIL5 whole entry): T1 sequence (whole entry)

[4] = test system: Mycobacterium tuberculosis; assay: Antibacterial activity against Mycobacterium tuberculosis at 128 uM by MABA assay; assay type: functional

| Structure (SMILES) | inhibition [1] [%] | inhibition at 128 µM [2] [%] | IC50 [3] [nM] | inhibition at 128 µM [4] [%] |
| --- | --- | --- | --- | --- |
| CC(C)(C)C1CCc2onc(C(=O)Nc3cnn(Cc4ccccc4I)c3)c2C1 (centres undefined) | 84 | 12 | 160 | 70 |
| CC(C)(C)C1CCc2onc(C(=O)Nc3cnn(Cc4ccc(F)cc4)c3)c2C1 (centres undefined) | 98 | 0 | 150 | 0 |
| CC(C)(C)C1CCc2onc(C(=O)Nc3cnn(Cc4ccc(F)cc4F)c3)c2C1 (centres undefined) | 100 | 47 | 130 | 56 |
| CC(C)(C)C1CCc2onc(C(=O)Nc3cnn(Cc4ccc(Cl)cc4)c3)c2C1 (centres undefined) | 98 | – | 140 | – |
| CC(C)(C)C1CCc2onc(C(=O)O)c2C1 (centres undefined) | 12 | 11 | – | 5 |
| CC(C)(C)C1CCc2onc(C(=O)Nc3cn[nH]c3)c2C1 (centres undefined) | 43 | 4 | 61000 | 60 |
| O=C(Nc1cnn(Cc2ccc(Cl)cc2Cl)c1)c1noc2c1CCCC2 | 18 | 53 | – | 70 |
| Cc1ccccc1Cn1cc(NC(=O)c2noc3c2CC(C(C)(C)C)CC3)cn1 (centres undefined) | 89 | 15 | 120 | 46 |
| CC(C)(C)C1CCc2onc(C(=O)Nc3cnn(Cc4ccc5ccccc5c4)c3)c2C1 (centres undefined) | 97 | – | 90 | 43 |
| CC(C)(C)C1CCc2onc(C(=O)Nc3cnn(Cc4ccc(C(=O)O)cc4)c3)c2C1 (centres undefined) | 99 | 2 | 460 | 41 |
| COc1ccc(Cc2noc(NC(=O)c3noc4c3CC(C(C)(C)C)CC4)c2C(N)=O)cc1 (centres undefined) | 79 | 14 | 7130 | 14 |
| COC(=O)c1ccc(Cn2cc(NC(=O)c3noc4c3CC(C(C)(C)C)CC4)cn2)cc1 (centres undefined) | 100 | 0 | 160 | 48 |
| CC(C)(C)C1CCc2onc(C(=O)Nc3cnn(Cc4ccccc4Br)c3)c2C1 (centres undefined) | 94 | 24 | 140 | 73 |
| CC(C)(C)C1CCc2onc(C(=O)Nc3cnn(Cc4ccccc4)c3)c2C1 (centres undefined) | 100 | 62 | 97 | 84 |
| CC(C)(C)C1CCc2onc(C(=O)Nc3cnn(Cc4ccc(C(=O)NCc5ccccc5)cc4)c3)c2C1 (centres undefined) | 82 | 46 | 210 | 54 |
| CC(C)(C)OC(=O)c1ccc(Cn2cc(NC(=O)c3noc4c3CC(C(C)(C)C)CC4)cn2)cc1 (centres undefined) | 79 | – | 250 | – |
| CC(C)(C)C1CCc2onc(C(=O)Nc3cnn(C(=O)c4c(Cl)cc(Cl)cc4Cl)c3)c2C1 (centres undefined) | 17 | 26 | – | 34 |
| CC(C)(C)C1CCc2onc(C(=O)Nc3cnn(Cc4ccc(C(=O)NCCc5ccccc5)cc4)c3)c2C1 (centres undefined) | 78 | 11 | 140 | 19 |
